Several values for one entry are separate records, joined by “and”; a condition that tells them apart may be missing. Equal entries are not always repeated.
How the values were obtained:
Format in all cases: cell-based
PAQR9 = biological target: T1, PAQR9 (Homo sapiens, UniProt Q6ZVX9); assay: FET3-lacZ reporter repression in yeast expressing PAQR9
T1 construct: expressed in transfected cells; host or cells: Saccharomyces cerevisiae BY4742, GAL1-driven pYES260 plasmid
T1 sequence (Q6ZVX9 1-377): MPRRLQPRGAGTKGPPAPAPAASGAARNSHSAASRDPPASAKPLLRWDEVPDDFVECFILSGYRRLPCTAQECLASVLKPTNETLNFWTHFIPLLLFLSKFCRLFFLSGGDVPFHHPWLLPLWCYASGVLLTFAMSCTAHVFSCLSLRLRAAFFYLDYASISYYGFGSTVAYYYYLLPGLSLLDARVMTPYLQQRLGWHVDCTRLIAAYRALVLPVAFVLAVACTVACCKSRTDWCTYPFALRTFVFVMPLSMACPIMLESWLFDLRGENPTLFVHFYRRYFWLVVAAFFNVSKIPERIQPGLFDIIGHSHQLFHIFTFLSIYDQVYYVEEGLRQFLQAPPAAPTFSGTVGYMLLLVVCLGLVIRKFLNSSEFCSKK
Description: (§1) Plasmids and primers. Human PAQRs were cloned into various vectors by PCR from commercially/publically available cDNAs. PAQRs were cloned into the pYES260 (Melcher, 2000), pRS316 (Liu et al., 1992) or pGREG536 (Jansen et al., 2005) expression vectors using gap repair. The pJK90 plasmid containing a Dual Topology Reporter (DTR)-tagged OST4 gene driven by the constitutive TPI1 promoter was kindly provided by Dr. Gunnar von Heijne (Stockholm University) (Kim et al., 2003). The OST4 open reading frame in pJK90 was replaced with the PAQR6 and mPRα open reading frames by gap repair. Primers for all cloning reactions are listed herein. Proteins expressed in pYES260 have an N-terminal 6×-histidine tag followed by a TEV protease cleavage site. Proteins expressed in pGREG536 have an N-terminal 7×-HA tag. Proteins expressed in the pRS316 vector are untagged. The pYES260, pRS316 and pGREG536 vectors allow for galactose-inducible expression via the GAL1 promoter. […] The FET3-lacZ plasmid was previously described (Kupchak et al., 2007). Plasmids derived from pADM4 carrying hyperactive alleles of Gpa1p (Gpa1p^Q323L) (Slessareva et al., 2006) and Gpa2p (Gpa2p^Q300L) (Harashima et al., 2002) driven by the ADH1 promoter were kindly provided by Dr. Henrik Dohlman (UNC Chapel Hill). A pRS316-based plasmid containing the STE2 gene under the control of the GAL1 promoter (Feng et al., 2000) was kindly provided by Dr. Nicholas G. Davis (Wayne State University).
Assays and growth conditions. Strains were maintained using standard protocol and grown in synthetic defined (SD) media with the appropriate amino acids to match the auxotrophies of the individual strains. Low Iron Medium (LIM) contains EDTA to limit iron-bioavailability and its composition has been previously described (Kupchak et al., 2007). […] Cells were allowed to grow to mid-log phase at which time the activity of the FET3 gene was monitored using a FET3-lacZ promoter-reporter construct. lacZ activities are presented as a percentage of activity seen in untreated cells expressing the appropriate empty expression vector control. […]

mPRβ = biological target: T2, mPRβ (Homo sapiens, UniProt Q8TEZ7); assay: FET3-lacZ reporter repression in yeast expressing mPRβ; details: Table 3, iron deficient LIM, 0.05% galactose
T2 construct: expressed in transfected cells; host or cells: Saccharomyces cerevisiae BY4742, GAL1-driven pYES260 plasmid
T2 sequence (Q8TEZ7 1-354): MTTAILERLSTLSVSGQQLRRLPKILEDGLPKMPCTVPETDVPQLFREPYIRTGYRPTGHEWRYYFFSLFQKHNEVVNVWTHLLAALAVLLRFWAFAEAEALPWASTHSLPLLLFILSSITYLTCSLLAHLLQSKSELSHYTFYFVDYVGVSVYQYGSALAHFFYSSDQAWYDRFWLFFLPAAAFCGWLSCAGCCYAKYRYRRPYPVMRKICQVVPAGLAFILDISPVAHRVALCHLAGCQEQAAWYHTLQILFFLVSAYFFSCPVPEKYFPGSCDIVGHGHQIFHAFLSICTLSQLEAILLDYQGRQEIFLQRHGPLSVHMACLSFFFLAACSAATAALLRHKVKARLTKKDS
Description: as §1, with “Plasmids derived from pADM4 carrying hyperactive alleles of Gpa1p (Gpa1p^Q323L) (Slessareva et al., 2006) and Gpa2p (Gpa2p^Q300L) (Harashima et al., 2002) driven by the ADH1 promoter were kindly provided by Dr. Henrik Dohlman (UNC Chapel Hill). A pRS316-based plasmid containing the STE2 gene under the control of the GAL1 promoter (Feng et al., 2000) was kindly provided by Dr. Nicholas G. Davis (Wayne State University).” left out
Assays and growth conditions. […] Cells were allowed to grow to mid-log phase at which time the activity of the FET3 gene was monitored using a FET3-lacZ promoter-reporter construct. lacZ activities are presented as a percentage of activity seen in untreated cells expressing the appropriate empty expression vector control. […]

mPRγ = biological target: T3, mPRγ (Homo sapiens, UniProt Q9NXK6); assay: FET3-lacZ reporter repression in yeast expressing mPRγ
T3 construct: Full length and truncated mPRγ and mPRα were expressed in wild type cells grown in 2% galactose from the pGREG536 vector; expressed in transfected cells; host or cells: Saccharomyces cerevisiae (BY4742 wild type; also gpa mutants), GAL1-driven plasmids
T3 sequence (Q9NXK6 1-330): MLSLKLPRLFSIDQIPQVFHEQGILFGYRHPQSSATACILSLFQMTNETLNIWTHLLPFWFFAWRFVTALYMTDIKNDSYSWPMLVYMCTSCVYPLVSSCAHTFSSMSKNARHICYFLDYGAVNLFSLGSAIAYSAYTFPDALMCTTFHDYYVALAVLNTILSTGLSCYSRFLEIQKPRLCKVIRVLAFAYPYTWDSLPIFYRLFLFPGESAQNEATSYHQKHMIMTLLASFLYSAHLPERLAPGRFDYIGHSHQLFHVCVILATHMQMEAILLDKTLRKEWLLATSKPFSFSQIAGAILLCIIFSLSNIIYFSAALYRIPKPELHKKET
Description: as §1
Assays and growth conditions. Strains were maintained using standard protocol and grown in synthetic defined (SD) media with the appropriate amino acids to match the auxotrophies of the individual strains. Low Iron Medium (LIM) contains EDTA to limit iron-bioavailability and its composition has been previously described (Kupchak et al., 2007). […] In brief, overnights of cells grown in SD-glucose media were re-inoculated into iron-deficient LIM to induce the expression of FET3. 2% galactose was used as a carbon source to induce full expression of PAQR genes driven by the GAL1 promoter, while 0.05% galactose/1.95% raffinose was used for reduced PAQR expression. All ligands were added to the growth medium upon re-inoculation into LIM. For experiments in which steroids were added as ligands, steroids were added from ethanol stocks and “untreated” controls are actually treated with an equal volume of ethanol to control for vehicle effects. Cells were allowed to grow to mid-log phase at which time the activity of the FET3 gene was monitored using a FET3-lacZ promoter-reporter construct. lacZ activities are presented as a percentage of activity seen in untreated cells expressing the appropriate empty expression vector control. For individual experiments, each data point has been done in triplicate and the error bars represent +/−1 standard deviation. All experiments were performed at least three times and a representative experiment is shown. EC50 values were obtained using the web-based BioDataFit software using sigmoidal curve-fitting. (web site changbioscience.com/stat/ec50.html)

## CC(=O)[C@H]1CC[C@H]2[C@@H]3CCC4=CC(=O)CC[C@]4(C)[C@H]3CC[C@]12C [Progesterone, progesterone]
PAQR9; PAQR9, Table 3
  EC50: 13.8 nM
PAQR9; higher than the other four Class II receptors
  EC50 for progesterone activation of PAQR9 relative to the other four Class II receptors: approximately 10 fold
mPRβ
  EC50: 1.6 nM and 1 to 3 nM
mPRγ; mPRγ column of Table 4, ligand alone
  EC50: 1.1 nM
mPRγ; mPRγ, Table 3, iron deficient LIM, 0.05% galactose
  EC50: 1.3 nM and 1 to 3 nM
mPRγ; mPRγ, progesterone in the presence of 100 nM RU-486
  EC50: 15.5 nM
mPRγ; mPRγ, progesterone in the presence of 10 μM testosterone
  EC50: 10.7 nM

Reference: US8809001B2, “High throughput assays for inhibitors and activators of PAQR receptors” (University of Florida Research Foundation, Inc., priority 2007, dated 2014)
